From ChEMBL document CHEMBL4316586, “A comprehensive review of salinomycin derivatives as potent anticancer and anti-CSCs agents” (Eur J Med Chem, 2019)

Key:
4T1 = assay: Antiproliferative activity against mouse 4T1 cells by MTT assay; assay type: functional, cell-based
HCC1937 [1] = assay: Antiproliferative activity against human HCC1937 cells; assay type: functional, cell-based
JIMT-1 [2] = assay: Antiproliferative activity against human JIMT1 cells after 72 hrs by MTT assay; assay type: functional, cell-based; settings: JIMT-1, 72 h
HCC1937 [3] = assay: Antiproliferative activity against human HCC1937 cells after 72 hrs by MTT assay; assay type: functional, cell-based; settings: HCC1937, 72 h
HGC-27 [4] = assay: Antiproliferative activity against human HGC27 cells by MTT assay; assay type: functional, cell-based
MDA-MB-231 [5] = assay: Antiproliferative activity against human MDA-MB-231 cells by MTT assay; assay type: functional, cell-based
JIMT-1 [6] = assay: Antiproliferative activity against human JIMT1 cells by MTT assay; assay type: functional, cell-based
MCF7 [7] = assay: Antiproliferative activity against human MCF7 cells by MTT assay; assay type: functional, cell-based
U-87 MG = assay: Antiproliferative activity against human U87 cells by MTT assay; assay type: functional, cell-based, U-87MG ATCC
HeLa = assay: Antiproliferative activity against human HeLa cells by MTT assay; assay type: functional, cell-based
Caco-2 = assay: Antiproliferative activity against human Caco2 cells by MTT assay; assay type: functional, cell-based
[8] = Antiproliferative activity against HMLER cells by MTT assay Breast cancer stem cell; assay type: functional, cell-based; settings: Homo sapiens
JIMT-1 [9] = assay: Antiproliferative activity against human JIMT1 cells; assay type: functional, cell-based
HT-29 = assay: Antiproliferative activity against human HT-29 cells after 48 hrs by MTT assay; assay type: functional, cell-based; settings: HT-29, 48 h
HGC-27 [10] = assay: Antiproliferative activity against human HGC27 cells after 48 hrs by MTT assay; assay type: functional, cell-based; settings: HGC-27, 48 h
MDA-MB-231 [11] = assay: Antiproliferative activity against human MDA-MB-231 cells after 48 hrs by MTT assay; assay type: functional, cell-based; settings: MDA-MB-231, 48 h
MDA-MB-231 [12] = assay: Antiproliferative activity against human MDA-MB-231 cells by SRB assay; assay type: functional, cell-based
[13] = Antiproliferative activity against human LoVo/DX cells by SRB assay; assay type: functional, cell-based
MCF7 [14] = assay: Antiproliferative activity against human MCF7 cells; assay type: functional, cell-based
MCF7 [15] = assay: Antiproliferative activity against human MCF7 cells by SRB assay; assay type: functional, cell-based
LoVo = assay: Antiproliferative activity against human LoVo cells by SRB assay; assay type: functional, cell-based
JIMT-1 [16] = assay: Antiproliferative activity against human JIMT1 cells by SRB assay; assay type: functional, cell-based
SK-BR-3 = assay: Antiproliferative activity against human SKBR3 cells by SRB assay; assay type: functional, cell-based
MCF-10A = assay: Antiproliferative activity against human MCF10A cells by SRB assay; assay type: cell-based

CC[C@@H](C(=O)[C@@H](C)[C@@H](O)[C@H](C)[C@@H]1O[C@@H]([C@@H](CC)C(=O)O)CC[C@@H]1C)[C@H]1O[C@]2(C=C[C@H](n3cc(-c4ccccc4C(=O)OC)nn3)[C@]3(CC[C@@](C)([C@H]4CC[C@](O)(CC)[C@H](C)O4)O3)O2)[C@H](C)C[C@@H]1C
IC50 (4T1): 3.83 µM

CC[C@@H](C(=O)[C@@H](C)[C@@H](O)[C@H](C)[C@@H]1O[C@@H]([C@@H](CC)C(=O)OCC[Si](C)(C)C)CC[C@@H]1C)[C@H]1O[C@]2(C=C[C@@H](O)[C@]3(CC[C@@](C)([C@H]4CC[C@](O)(CC)[C@H](C)O4)O3)O2)[C@H](C)C[C@@H]1C
IC50 (HCC1937 [1]): 4.36 µM

CC[C@@H](C(=O)[C@@H](C)[C@@H](O)[C@H](C)[C@@H]1O[C@@H]([C@@H](CC)C(=O)O)CC[C@@H]1C)[C@H]1O[C@]2(C=CC[C@]3(CC[C@@](C)([C@H]4CC[C@](O)(CC)[C@H](C)O4)O3)O2)[C@H](C)C[C@@H]1C
IC50 (JIMT-1 [2]): 1.73 µM | IC50 (HCC1937 [3]): > 10 µM

CC[C@@H](C(=O)[C@@H](C)[C@@H](O)[C@H](C)[C@@H]1O[C@@H]([C@@H](CC)C(=O)O)CC[C@@H]1C)[C@H]1O[C@]2(C=C[C@H](n3cc(-c4ccc(Br)cc4)nn3)[C@]3(CC[C@@](C)([C@H]4CC[C@](O)(CC)[C@H](C)O4)O3)O2)[C@H](C)C[C@@H]1C
IC50 (4T1): 3.69 µM

CC[C@@H](C(=O)[C@@H](C)[C@@H](O)[C@H](C)[C@@H]1O[C@@H]([C@@H](CC)C(=O)O)CC[C@@H]1C)[C@H]1O[C@]2(C=C[C@@H](O)[C@]3(CC[C@@](C)([C@H]4CC[C@](O)(CC)[C@H](C)O4)O3)O2)[C@H](C)C[C@@H]1C [SALINOMYCIN]
IC50 (HGC-27 [4]): 2.57 µM | IC50 (MDA-MB-231 [5]): 6.91 µM | IC50 (JIMT-1 [6]): 0.52 µM | IC50 (MCF7 [7]): 0.59 µM | IC50 (U-87 MG): 38.7 µM | IC50 (HeLa): 0.32 µM | IC50 (Caco-2): 13 µM | IC50 [8]: 0.1 µM | IC50 (JIMT-1 [9]): 0.52 µM | IC50 (HT-29): 3.21 µM | IC50 (HGC-27 [10]): 8.18 µM | IC50 (MDA-MB-231 [11]): > 10 µM | IC50 (MDA-MB-231 [12]): 6.42 µM | IC50 [13]: 0.69 µM

CC[C@@H]([C@H](O)[C@@H](C)[C@@H](O)[C@H](C)[C@@H]1O[C@@H]([C@@H](CC)C(=O)O)CC[C@@H]1C)[C@H]1O[C@]2(C=C[C@@H](O)[C@]3(CC[C@@](C)([C@H]4CC[C@](O)(CC)[C@H](C)O4)O3)O2)[C@H](C)C[C@@H]1C
IC50 (JIMT-1 [9]): 15.6 µM | IC50 (MCF7 [14]): 12.5 µM

CC[C@@H](C(=O)[C@@H](C)[C@@H](O)[C@H](C)[C@@H]1O[C@@H]([C@@H](CC)C(=O)O)CC[C@@H]1C)[C@H]1O[C@]2(CCC(=O)[C@]3(CC[C@@](C)([C@H]4CC[C@](O)(CC)[C@H](C)O4)O3)O2)[C@H](C)C[C@@H]1C
IC50 (JIMT-1 [9]): 2.68 µM | IC50 (MCF7 [14]): 3.11 µM

CC[C@@H](C(=O)[C@@H](C)[C@@H](O)[C@H](C)[C@@H]1O[C@@H]([C@@H](CC)C(=O)O)CC[C@@H]1C)[C@H]1O[C@]2(CCC[C@]3(CC[C@@](C)([C@H]4CC[C@](O)(CC)[C@H](C)O4)O3)O2)[C@H](C)C[C@@H]1C
IC50 (JIMT-1 [2]): 2.08 µM | IC50 (HCC1937 [3]): > 10 µM

CC[C@@H]([C@@H](O)[C@@H](C)[C@@H](O)[C@H](C)[C@@H]1O[C@@H]([C@@H](CC)C(=O)O)CC[C@@H]1C)[C@H]1O[C@]2(C=C[C@@H](O)[C@]3(CC[C@@](C)([C@H]4CC[C@](O)(CC)[C@H](C)O4)O3)O2)[C@H](C)C[C@@H]1C
IC50 (JIMT-1 [9]): 12.5 µM | IC50 (MCF7 [14]): 13.7 µM

CC[C@@H](C(=O)[C@@H](C)[C@@H](O)[C@H](C)[C@@H]1O[C@@H]([C@@H](CC)C(=O)O)CC[C@@H]1C)[C@H]1O[C@]2(C=C[C@@H](OC(=O)c3ccc(C(=O)O[C@@H]4C=C[C@]5(O[C@H]([C@@H](CC)C(=O)[C@@H](C)[C@@H](O)[C@H](C)[C@@H]6O[C@@H]([C@@H](CC)C(=O)O)CC[C@@H]6C)[C@@H](C)C[C@H]5C)O[C@@]45CC[C@@](C)([C@H]4CC[C@](O)(CC)[C@H](C)O4)O5)cc3)[C@]3(CC[C@@](C)([C@H]4CC[C@](O)(CC)[C@H](C)O4)O3)O2)[C@H](C)C[C@@H]1C
IC50 (MCF7 [15]): 1.8 µM | IC50 (LoVo): 1.2 µM | IC50 [13]: 2.8 µM | IC50 (JIMT-1 [16]): 2.4 µM | IC50 (SK-BR-3): 1 µM | IC50 (MCF-10A): 21 µM
